Experiments:
Assay type in all cases: cell-based, human
[1] = system: cytokines/chemokines in CHLA-255-monocyte co-cultures; assay: Multiplex Luminex cytokine array on co-culture supernatants; details: CHLA-255 + monocytes, 10 μg/mL etanercept, 24 hours
[2] = system: CHLA-255 monolayer and monocytes; assay: Adherence of CD14+ monocytes to NB monolayer; details: CHLA-255, 10 μg/mL etanercept, four days
Method: Cultures were imaged at 10× magnification using Nikon DS-Fi1/Elements Software. Scale bar 50 μm. (FIG. 26B) CHLA-255 was grown to 25% confluence in 12-well tissue culture plates and overlaid with freshly isolated human monocytes. […] Non-adherent cells were gently washed with PBS before mechanical dissociation to release adherent cells. Adherent CD14+ monocytes were quantified relative to NB from samples run in triplicate. **** p<0.0001;

[3] = system: SK-N-AS-luc; assay: NB luminescence viability in monocyte co-culture; details: SK-N-AS-luc + monocytes, 10 μg/mL etanercept, 72 hours (FIG. 8B)
Method: (§1) (FIG. 8A) Luciferase expressing CHLA-255-luc and SK-NAS-luc were cultured in 1-16,000 pg/mL rhTNF for 48 hours and viability of the cells was measured by luminescence. Data was normalized to untreated control and graphed as % Viability versus Log10 of TNF concentration.
(§2) Monocytes were directly cultured with wild-type or TNF, TNFR1, TNFR2 KO NB cell lines in ULA plates for 24 hours. Activation of NF-kB in monocytes and NB was measured by flow cytometry and cytokine production measured by ELISA from co-culture supernatant. To evaluate the contact-dependence of monocyte activation by NB, monocytes were cultured in ULA plates with seven-day NB conditioned medium mixed 1:1 with complete monocyte medium for 24 hours and analyzed for IL-6 production. […] Luminescence was measured using a TECAN Spark plate reader (TECAN). To evaluate changes in proliferation, NB was pulsed for 10 minutes in CellTrace Violet (2 μM, Invitrogen) and seeded at 100,000 cells per well in a 12-well tissue culture-treated plate. Monocytes were added directly to the NB monolayer at a density of 100,000 per well and incubated for four days. CellTrace Violet expression was analyzed by flow cytometry.

[4] = system: CHLA-255-luc; assay: NB luminescence growth/viability in monocyte co-culture; details: 10 μg/mL etanercept
Method: as §1
(15A) TNFα level within co-culture supernatant was determined by TNFα ELISA. Mean TNFα concentration±SD of representative data from two monocyte donors run in triplicate. (FIG. 15B) Supernatant IL-6 levels were determined by ELISA. Mean IL-6 concentration±SD of representative data from two monocyte donors run in triplicate (FIG. 15C) Intracellular IκBα expression level within CD14+GD2− monocyte population was determined by flow cytometry and IκBα MFI was normalized to monocyte only control. Mean normalized IκBα MFI±SD and representative from experiments with two monocyte donors run in triplicate. (FIG. 15D) Intracellular IκBα expression level within CD14-GD2+NB population was determined by flow cytometry and IκBα MFI was normalized to NB only control. Mean normalized IκBαMFI±SD, representative from experiments with two monocyte donors run in triplicate. (FIG. 15E) Multiplex Luminex cytokine assay was performed on co-culture supernatants. […] NB luminescence was used to evaluate relative viability of cell line. Results are normalized mean luminescence±SD, n=6 replicates per condition. […] Cells undergoing multiple (2+) divisions were quantified as a percentage of total cells and normalized to NB (0) and Ctrl (1). […]
as §2, with “To evaluate changes in proliferation, NB was pulsed for 10 minutes in CellTrace Violet (2 μM, Invitrogen) and seeded at 100,000 cells per well in a 12-well tissue culture-treated plate. Monocytes were added directly to the NB monolayer at a density of 100,000 per well and incubated for four days.” left out

## etanercept
[1]
  induction/upregulation of G-CSF, GM-CSF, IL-1α, IL-1β, IL-6, IL-10, IL-12-p40, IP-10, MIP-1β: completely reversed the induction/upregulation of all nine cytokines/chemokines
[2]
  adherence of CD14+ monocytes to NB monolayer: decreased the adherence
[3]
  cell death caused by monocyte-produced TNF (luminescence): rescued
[4]; CHLA-255-luc + monocytes, 72 hours (FIG. 8B)
  monocyte-induced proliferation above baseline (luminescence): reduces this
[4]; CHLA-255-luc + monocytes, 72 hours, vs IgG control (FIG. 15F)
  NB luminescence (growth/viability) increase induced by monocytes: completely abrogated the effect of monocytes on NB cells
[4]; CHLA-255-luc and SK-N-AS-luc + monocytes, 72 hours (FIG. 8B)
  effect of monocyte-induced TNF signaling on NB cells: reversed the effect of monocyte-induced TNF signaling on NB cells

Source: US20230103554A1, “TNFa SIGNALING [sequence] TUMOR-PROMOTING INFLAMMATION THAT CAN BE TARGETED TO THERAPY” (Baylor College of Medicine, priority 2020, published 2023)
